# Measured values published in US20260297060A1, “COMPOUNDS FOR THE DEGRADATION OF MUTANT BRAF” (C4 THERAPEUTICS, INC., priority 2023, published 2026).
# Tests used:
# [1] = Example 8 pharmacokinetics assay for PKPD study (plasma, tumor, liver); format: in vivo, BALB/c nude mice; conditions: 10 mg/kg, p.o., single dose; for concentration at 6 h / concentration at 12 h / concentration at 1 h / concentration at 24 h: mouse, po
# Procedure: For the PK and PD study, agents were administered to BALB/c nude mice bearing A375 human melanoma xenografts tumors. encorafenib, Compound 8, Compound 26, Compound 38, and Compound 39 were dosed p.o. once on day 1. Encorafenib was dosed at 35 mg/kg, Compound 8, Compound 26, Compound 38, and Compound 39 were dosed at 10 mg/kg. This study was non-GLP.
# (§1) The plasma samples were collected at predetermined time points for PK analysis. For non-termination plasma collection, blood samples were collected into the 1.5 mL Eppendorf tubes containing 3 μL of 0.5 M EDTA-K2. For termination plasma collection, the mice were euthanized at predetermined time points post the treatment and the blood samples were collected into the 1.5 mL Eppendorf tubes containing 15 μL of 0.5 M EDTA-K2. And then the anticoagulant blood samples were centrifuged at 2,500 g at 4° C. for 15 minutes. The plasma samples were separated into 2 aliquots. The 1st was used for PK analysis, and the 2nd served as backup. The samples were stored at −80° C. before bioanalysis.
# (§2) The tumor samples were collected at predetermined time points for PK and WB analysis. The tumor was dissected out and split into 3 parts. The 1st part was used for PK analysis, the 2nd part was used for WB analysis and the last one served as backup for study. The samples were transferred into pre-labeled tubes and quickly froze in liquid nitrogen within 2 minutes after dissection. The samples were stored at −80° C. before bioanalysis.
# (§3) Liver samples were collected at predetermined time points for PK analysis. The left lobe of the liver was dissected out and split into 2 parts. The 1st part was used for PK analysis and the 2nd part served as the backup for the study. The samples were transferred into pre-labeled tubes and quickly froze in liquid nitrogen within 2 minutes after dissection. The samples were stored at −80° C. before bioanalysis.
# The harvested plasma and liver samples were processed for pharmacokinetics analysis by LC-MS/MS with a concentration range of 0.200~200 ng/mL for encorafenib in plasma and liver homogenate, and 0.100-100 ng/ml in tumor homogenate, 1.00-1000 ng/mL for Compound 8 in plasma and 0.500~500 ng/ml in tumor and liver homogenate, 50.0~50,000 ng/mL for Compound 26 and Compound 38 in plasma, 5.0~5000 ng/ml in liver and 2.00~2000 ng/ml in tumor homogenate, 1.00-1000 ng/mL for Compound 39 in plasma and 0.500~500 ng/mL in liver and tumor homogenate.
# [2] = Example 7 pharmacokinetics assay for PKPD study (plasma, tumor, liver); format: in vivo, BALB/c nude mice; conditions: mouse, po, 10 mg/kg, p.o., single dose
# Procedure: For the PK and PD study, agents were administered to BALB/c nude mice bearing A375 human melanoma xenografts tumors. Dabrafenib, Compound 141, Compound 118, Compound 156, and Compound 180 were dosed p.o. once on day 1. Known BRAF inhibitor Dabrafenib was used as a positive control. Dabrafenib was dosed at 100 mg/kg. Compound 141, Compound 118, Compound 156, and Compound 180 were dosed at 10 mg/kg.
# as §1, with “The” for “For non-termination plasma collection, blood samples were collected into the 1.5 mL Eppendorf tubes containing 3 μL of 0.5 M EDTA-K2. For termination plasma collection, the”, “treatment. The” for “treatment and the”
# as §2, §3
# The harvested plasma and liver samples were processed for pharmacokinetics analysis by LC-MS/MS with a concentration range of 0.500-1000 ng/mL for Dabrafenib, Compound 118 and Compound 180 in plasma, 0.100~200 ng/ml for Dabrafenib in Liver and tumor homogenate, 50.0~50,000 ng/mL for Compound 141 in plasma and Liver homogenate, 1.00-1000 ng/ml for Compound 141 in tumor homogenate, 2.00~2000 ng/mL for Compound 118 and Compound 180 in Liver and 0.200~200 ng/ml in tumor homogenate, 1.00~2000 ng/mL for Compound 156 in plasma, 0.500-1000 ng/ml in liver and 0.500-1,000 ng/ml in tumor homogenate.
# [3] = liver, 6 h, read-out: Concentration in Liver (mean ± SEM)
# [4] = plasma, 1 h, read-out: Concentration in Plasma (mean ± SEM)
# [5] = plasma, 6 h, read-out: Concentration in Plasma (mean ± SEM)
# [6] = plasma, 12 h, read-out: Concentration in Plasma (mean ± SEM)
# [7] = tumor, 1 h, read-out: Concentration in Tumor (mean ± SEM)
# [8] = tumor, 6 h, read-out: Concentration in Tumor (mean ± SEM)
# [9] = tumor, 12 h, read-out: Concentration in Tumor (mean ± SEM)
# [10] = liver, read-out: Concentration in Liver (mean ± SEM)
# [11] = plasma, read-out: Concentration in Plasma (mean ± SEM)
# [12] = tumor, read-out: Concentration in Tumor (mean ± SEM)
SMILES,"concentration at 6 h [2, 10] [ng/g]","concentration at 12 h [2, 10] [ng/g]","concentration at 1 h [2, 11] [ng/mL]","concentration at 6 h [2, 11] [ng/mL]","concentration at 12 h [2, 11] [ng/mL]","concentration at 24 h [2, 11] [ng/mL]","concentration at 1 h [2, 12] [ng/g]","concentration at 6 h [2, 12] [ng/g]","concentration at 12 h [2, 12] [ng/g]","concentration at 24 h [2, 12] [ng/g]",further results
"CCN(C)S(=O)(=O)Nc1ccc(F)c(Oc2ccc3ncn(C4CC5(CCN(C6CCC(c7cc8c(cc7F)c(N7CCC(=O)NC7=O)nn8C)CC6)CC5)C4)c(=O)c3c2)c1C#N (single isomer, unassigned) [Compound 8, 6-[2-cyano-3-[[ethyl(methyl)sulfamoyl]amino]-6-fluoro-phenoxy]-3-[7-[4-[3-(2,4-dioxohexahydropyrimidin-1-yl)-5-fluoro-1-methyl-indazol-6-yl]cyclohexyl]-7-azaspiro[3.5]nonan-2-yl]-4-oxo-quinazoline]",,,,,,,,,,,"concentration at 6 h [1, 3]: 379 ± 79.8 ng/g; concentration at 12 h ([1]; liver, 12 h, read-out: Concentration in Liver (mean ± SEM)): 74.8 ± 11.3 ng/g; concentration at 1 h [1, 4]: 2940 ± 149 ng/mL; concentration at 6 h [1, 5]: 339 ± 60.3 ng/mL; concentration at 12 h [1, 6]: 64.7 ± 16.8 ng/mL; concentration at 24 h ([1]; plasma, 24 h, read-out: Concentration in Plasma (mean ± SEM)): 1.27 ± 0.2 ng/mL; concentration at 1 h [1, 7]: 394 ± 17.6 ng/g; concentration at 6 h [1, 8]: 139 ± 21.7 ng/g; concentration at 12 h [1, 9]: 39.1 ± 5.77 ng/g; concentration at 24 h ([1]; tumor, 24 h, read-out: Concentration in Tumor (mean ± SEM)): 8.52 ng/g"
"CCN(C)S(=O)(=O)Nc1ccc(F)c(Oc2ccc3ncn([C@H]4COC5(CCC(N6CCC(c7cc8c(cc7F)c(N7CCC(=O)NC7=O)nn8C)C(F)(F)C6)CC5)C4)c(=O)c3c2)c1C#N (single isomer, unassigned) [Compound 38]",,,,,,,,,,,"Concentration in Liver (mean ± SEM) ([1]; 12 h, 720 min): 11243 ± 2595 ng/g; Concentration in Plasma (mean ± SEM) ([1]; 24 h, 1440 min): 1797 ± 63.3 ng/mL; Concentration in Tumor (mean ± SEM) ([1]; 24 h, 1440 min): 369 ± 42.6 ng/g; concentration at 6 h [1, 3]: 25500 ± 3820 ng/g; concentration at 1 h [1, 4]: 32000 ± 3960 ng/mL; concentration at 6 h [1, 5]: 16400 ± 1500 ng/mL; concentration at 12 h [1, 6]: 6810 ± 795 ng/mL; concentration at 1 h [1, 7]: 3320 ± 523 ng/g; concentration at 6 h [1, 8]: 3830 ± 736 ng/g; concentration at 12 h [1, 9]: 1990 ± 415 ng/g"
"CCN(C)S(=O)(=O)Nc1ccc(F)c(Oc2ccc3ncn([C@H]4COC5(CCC(N6CCC(c7cc8c(cc7F)c(N7CCC(=O)NC7=O)nn8C)C(F)(F)C6)CC5)C4)c(=O)c3c2)c1C#N (single isomer, unassigned) [Compound 39]",,,,,,,,,,,"Concentration in Plasma (mean ± SEM) ([1]; 1 h, 60 min): 34700 ± 3785 ng/mL; Concentration in Tumor (mean ± SEM) ([1]; 1 h, 60 min): 3423 ± 648 ng/g; Concentration in Liver (mean ± SEM) ([1]; 6 h, 360 min): 18200 ± 1735 ng/g; Concentration in Plasma (mean ± SEM) ([1]; 6 h, 360 min): 15700 ± 1358 ng/mL; Concentration in Tumor (mean ± SEM) ([1]; 6 h, 360 min): 4713 ± 256 ng/g; Concentration in Liver (mean ± SEM) ([1]; 12 h, 720 min): 5610 ± 455 ng/g; Concentration in Plasma (mean ± SEM) ([1]; 12 h, 720 min): 3973 ± 202 ng/mL; Concentration in Tumor (mean ± SEM) ([1]; 12 h, 720 min): 1510 ± 43.6 ng/g; Concentration in Plasma (mean ± SEM) ([1]; 24 h, 1440 min): 171 ± 20.8 ng/mL; Concentration in Tumor (mean ± SEM) ([1]; 24 h, 1440 min): 79.3 ± 25.3 ng/g"
"CCN(C)S(=O)(=O)Nc1ccc(F)c(Oc2ccc3ncn(C4CC5(CCN(C6CC7(C6)CN(c6cc8c(cc6F)c(N6CCC(=O)NC6=O)nn8C)C7)CC5)C4)c(=O)c3c2)c1C#N (stereo not shown) [Compound 141, 6-[2-cyano-3-[[ethyl(methyl)sulfamoyl]amino]-6-fluoro-phenoxy]-3-[7-[2-[3-(2,4-dioxohexahydropyrimidin-1-yl)-5-fluoro-1-methyl-indazol-6-yl]-2-azaspiro[3.3]heptan-6-yl]-7-azaspiro[3.5]nonan-2-yl]-4-oxo-quinazoline]",9730 ± 1380,3050 ± 618,17700 ± 924,10700 ± 1420,2530 ± 365,219 ± 74.6,2120 ± 109,2230 ± 114,818 ± 121,75.4 ± 24.3,

# More lines, main results first:
"concentration at 6 h [2, 10] [ng/g]","concentration at 12 h [2, 10] [ng/g]","concentration at 1 h [2, 11] [ng/mL]","concentration at 6 h [2, 11] [ng/mL]","concentration at 12 h [2, 11] [ng/mL]","concentration at 24 h [2, 11] [ng/mL]","concentration at 1 h [2, 12] [ng/g]","concentration at 6 h [2, 12] [ng/g]","concentration at 12 h [2, 12] [ng/g]","concentration at 24 h [2, 12] [ng/g]",SMILES,further results
103000 ± 9270,111000 ± 12000,1240 ± 90.2,1500 ± 574,985 ± 234,595 ± 81.8,345 ± 57.4,855 ± 257,509 ± 101,254 ± 7.8,"CCN(C)S(=O)(=O)Nc1ccc(F)c(Oc2ccc3ncc(OCC4CCN(C5CCC(c6cc7c(cc6F)c(N6CCC(=O)NC6=O)nn7C)CC5)CC4)nc3c2)c1C#N (single isomer, unassigned) [Compound 118, 7-[2-cyano-3-[[ethyl(methyl)sulfamoyl]amino]-6-fluoro-phenoxy]-2-[[1-[4-[3-(2,4-dioxohexahydropyrimidin-1-yl)-5-fluoro-1-methyl-indazol-6-yl]cyclohexyl]-4-piperidyl]methoxy]quinoxaline]",
712 ± 282,247 ± 33.7,5110 ± 867,260 ± 84.3,155 ± 27.8,1.54 ± 0.588,680 ± 72.8,245 ± 34.7,82.6 ± 21.8,3.89,"CCN(C)S(=O)(=O)Nc1ccc(F)c(Oc2ccc3ncc(C4CC5(CCN(C6CCC(c7cc8c(cc7F)c(N7CCC(=O)NC7=O)nn8C)CC6)CC5)C4)nc3c2)c1C#N (single isomer, unassigned) [Compound 180, 7-[2-cyano-3-[[ethyl(methyl)sulfamoyl]amino]-6-fluoro-phenoxy]-2-[7-[4-[3-(2,4-dioxohexahydropyrimidin-1-yl)-5-fluoro-1-methyl-indazol-6-yl]cyclohexyl]-7-azaspiro[3.5]nonan-2-yl]quinoxaline]",
1460 ± 170,262 ± 100,4130 ± 545,805 ± 85.2,111 ± 46.3,1.78 ± 0.554,758 ± 66.9,295 ± 30.3,102 ± 35.6,33.5,"CCN(C)S(=O)(=O)Nc1ccc(F)c(Oc2ccc3ncn(C4CC5(CCN(C6CCN(c7cc8c(cc7F)c(N7CCC(=O)NC7=O)nn8C)CC6)CC5)C4)c(=O)c3c2)c1C#N [Compound 156, 6-[2-cyano-3-[[ethyl(methyl)sulfamoyl]amino]-6-fluoro-phenoxy]-3-[7-[1-[3-(2,4-dioxohexahydropyrimidin-1-yl)-5-fluoro-1-methyl-indazol-6-yl]-4-piperidyl]-7-azaspiro[3.5]nonan-2-yl]-4-oxo-quinazoline]",
